Knockdown rate data for 1 compound are collected here from US20130090381A1, “PYRETHRINOID-TYPE ESTERS AS PESTICIDES” (SUMITOMO CHEMICAL COMPANY, LIMITED, priority 2010, published 2013).

This assay concerns German cockroaches. Nature of the assay: Knockdown test on German cockroaches by spraying an oil solution. The class given is in vivo, German cockroach (Blattella germanica). As to conditions: 0.1% (w/v) oil solution, 1.5 ml sprayed; after 15 minutes; ten German cockroaches (5 of each male and female). The protocol:
The present invention compound (1) (0.1 parts) produced in the aforementioned Production Example was dissolved in 10 parts of isopropyl alcohol and the resulting solution was mixed with 89.9 parts of deodorized kerosine to prepare a 0.1% (w/v) oil solution.
Ten German cockroaches (5 of each male and female) were released in a test container (measuring 8.75 cm in diameter and 7.5 cm in height, bottom area covered with a 16 mesh wire netting) coated with butter at an inner wall, and the container was disposed on the bottom of a test chamber (bottom surface measuring 46 cm and 46 cm, 70 cm in height).
From 60 cm in height above the container, 1.5 ml of the oil solution of the present invention compound (1) was sprayed using a spray gun (spray pressure: 0.4 kg/cm^2). Thirty seconds after spraying, the container was removed from the test chamber. After a given time, the number of knockdowned cockroaches was counted and a knockdown rate was determined (repeated once). The knockdown rate was calculated by the following equation.
Knockdown rate (%)=(number of knockdowned cockroaches/number of test cockroaches)×100

Each structure is given as a SMILES string.

The compound `C#CCC1=C(C)[C@@H](OC(=O)[C@@H]2[C@@H](/C=C(C#N)/C=C/C)C2(C)C)CC1=O` [present invention compound (1), (S)-2-methyl-3-propynylcyclopent-2-en-4-on-1-yl=(1R)-trans-3-[(1Z,3E)-2-cyano-1,3-pentadienyl]-2,2-dimethylcyclopropane carboxylate] displayed a knockdown rate of 100%.
